The record followed here is patent publication US9637472B2, “Substituted 6,5-fused bicyclic heteroaryl compounds” (Epizyme, Inc., priority 2011, dated 2017).

Molecules are shown by their SMILES.

The term IC50 denotes the concentration that inhibits the measured activity by half.

The target in this experiment is EZH2 (Homo sapiens (Human), UniProt Q15910). Put plainly: PRC2 enzyme assay on peptide substrates. Conditions: PRC2 enzyme assays on peptide substrates; 4 nM enzyme, 30 min preincubation at 25° C.; read-out: EZH2 IC50. In kind it is biochemical.
EZH2, sequence (Q15910 other isoform, or with tags, fused parts or gaps): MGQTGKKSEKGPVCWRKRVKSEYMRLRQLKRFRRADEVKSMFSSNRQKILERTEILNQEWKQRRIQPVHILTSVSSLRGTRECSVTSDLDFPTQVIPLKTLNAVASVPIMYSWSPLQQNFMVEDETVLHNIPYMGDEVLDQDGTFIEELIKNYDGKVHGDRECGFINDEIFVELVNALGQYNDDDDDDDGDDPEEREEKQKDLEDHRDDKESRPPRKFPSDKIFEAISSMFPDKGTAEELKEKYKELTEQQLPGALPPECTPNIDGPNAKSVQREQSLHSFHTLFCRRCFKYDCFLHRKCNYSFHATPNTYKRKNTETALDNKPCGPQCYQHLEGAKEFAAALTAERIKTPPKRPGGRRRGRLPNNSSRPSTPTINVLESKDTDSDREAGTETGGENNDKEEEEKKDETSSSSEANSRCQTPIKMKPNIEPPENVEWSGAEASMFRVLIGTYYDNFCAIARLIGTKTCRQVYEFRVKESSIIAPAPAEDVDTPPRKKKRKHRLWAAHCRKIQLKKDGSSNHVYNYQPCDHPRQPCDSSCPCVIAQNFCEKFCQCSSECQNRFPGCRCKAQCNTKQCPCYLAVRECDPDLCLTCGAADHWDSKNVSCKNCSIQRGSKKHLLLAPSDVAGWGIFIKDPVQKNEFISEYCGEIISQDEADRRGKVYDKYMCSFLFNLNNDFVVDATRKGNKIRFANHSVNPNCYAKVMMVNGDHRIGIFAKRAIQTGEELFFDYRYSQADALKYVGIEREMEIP
EZH2, sequence (O75530 whole entry partner): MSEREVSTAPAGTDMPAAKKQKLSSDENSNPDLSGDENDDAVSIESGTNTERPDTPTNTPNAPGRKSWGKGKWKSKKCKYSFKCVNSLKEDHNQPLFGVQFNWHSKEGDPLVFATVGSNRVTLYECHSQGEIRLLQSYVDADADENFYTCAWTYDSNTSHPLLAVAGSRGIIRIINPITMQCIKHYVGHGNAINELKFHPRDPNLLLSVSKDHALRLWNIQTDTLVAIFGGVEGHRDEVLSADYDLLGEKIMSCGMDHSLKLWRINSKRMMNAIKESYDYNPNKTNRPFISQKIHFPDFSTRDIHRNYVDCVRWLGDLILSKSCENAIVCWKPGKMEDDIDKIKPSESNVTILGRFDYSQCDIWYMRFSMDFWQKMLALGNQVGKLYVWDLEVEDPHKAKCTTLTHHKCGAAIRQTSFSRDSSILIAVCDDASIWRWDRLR
EZH2, sequence (Q15022 whole entry partner): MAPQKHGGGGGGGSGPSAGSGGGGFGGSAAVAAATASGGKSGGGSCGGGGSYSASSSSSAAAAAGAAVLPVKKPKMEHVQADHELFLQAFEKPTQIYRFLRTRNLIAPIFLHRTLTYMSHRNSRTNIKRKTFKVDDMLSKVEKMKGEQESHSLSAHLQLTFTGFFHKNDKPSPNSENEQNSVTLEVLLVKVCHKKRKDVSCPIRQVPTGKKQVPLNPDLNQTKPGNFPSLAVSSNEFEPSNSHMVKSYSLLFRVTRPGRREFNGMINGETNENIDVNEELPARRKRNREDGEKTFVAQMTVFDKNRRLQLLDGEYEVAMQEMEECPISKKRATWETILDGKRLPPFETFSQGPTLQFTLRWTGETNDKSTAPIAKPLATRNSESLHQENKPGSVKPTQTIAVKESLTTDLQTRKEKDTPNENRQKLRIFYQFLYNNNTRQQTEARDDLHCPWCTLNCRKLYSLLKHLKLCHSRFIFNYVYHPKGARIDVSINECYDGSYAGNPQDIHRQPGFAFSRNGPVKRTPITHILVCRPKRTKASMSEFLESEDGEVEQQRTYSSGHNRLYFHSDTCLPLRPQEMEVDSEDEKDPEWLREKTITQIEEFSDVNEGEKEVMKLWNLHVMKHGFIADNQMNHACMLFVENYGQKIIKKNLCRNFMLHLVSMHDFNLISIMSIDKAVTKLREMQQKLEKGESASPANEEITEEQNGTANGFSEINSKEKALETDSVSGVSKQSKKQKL
EZH2, sequence (Q09028 whole entry partner): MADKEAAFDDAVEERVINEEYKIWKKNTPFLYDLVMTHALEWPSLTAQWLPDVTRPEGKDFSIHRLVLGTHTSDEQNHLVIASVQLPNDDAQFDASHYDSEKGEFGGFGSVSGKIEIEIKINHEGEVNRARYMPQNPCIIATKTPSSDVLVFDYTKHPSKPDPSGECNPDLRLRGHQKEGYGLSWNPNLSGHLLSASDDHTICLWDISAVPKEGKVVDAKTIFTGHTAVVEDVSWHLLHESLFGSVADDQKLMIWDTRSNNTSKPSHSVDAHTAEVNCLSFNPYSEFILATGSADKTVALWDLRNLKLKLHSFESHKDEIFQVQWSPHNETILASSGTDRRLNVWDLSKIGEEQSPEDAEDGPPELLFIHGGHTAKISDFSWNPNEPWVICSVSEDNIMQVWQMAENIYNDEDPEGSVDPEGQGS
As to `Cc1cc(C)c(CNC(=O)c2cc(C3=CCN(C(=O)C4CCNCC4)CC3)cc3c2cnn3C2CCCC2)c(=O)[nH]1` [Compound D-39], the IC50 is < 300 nM. As for `Cc1cc(C)c(CNC(=O)c2cc(C3=CCNCC3)cc3c2cnn3C2CCCC2)c(=O)[nH]1` [Compound D-41], the figure is < 300 nM. The result for `Cc1cc(C)c(CNC(=O)c2cc(Br)cc3c2cnn3C2CCN(C(=O)C(C)C)CC2)c(=O)[nH]1` [Compound D-42] reads < 300 nM; that for `Cc1cc(C)c(CNC(=O)c2cc(C=O)cc3c2cnn3C2CCCC2)c(=O)[nH]1` [Compound D-43], < 300 nM. In the case of `CNCC(=O)N1CC=C(c2cc(C(=O)NCc3c(C)cc(C)[nH]c3=O)c3cnn(C4CCCC4)c3c2)CC1` [Compound D-45], the IC50 was < 300 nM. For the compound `Cc1cc(C)c(CNC(=O)c2cc(C3CCN(CCN(C)C)CC3)cc3c2cnn3C2CCCC2)c(=O)[nH]1` [Compound D-46], the IC50 is < 300 nM.

Regarding `Cc1cc(C)c(CNC(=O)c2cc(C3=CCN(C(=O)CN)CC3)cc3c2cnn3C2CCCC2)c(=O)[nH]1` [Compound D-47], the IC50 was < 300 nM.

In the case of `CNCCN1CC=C(c2cc(C(=O)NCc3c(C)cc(C)[nH]c3=O)c3cnn(C4CCCC4)c3c2)CC1` [Compound D-48], the IC50 was < 300 nM. Consider `Cc1cc(C)c(CNC(=O)c2cc(C3=CCN(CCN)CC3)cc3c2cnn3C2CCCC2)c(=O)[nH]1` [Compound D-49], for which the IC50 was < 300 nM. The result for `Cc1cc(C)c(CNC(=O)c2cc(C3=CCN(C(=O)C4CN(C)C4)CC3)cc3c2cnn3C2CCCC2)c(=O)[nH]1` [Compound D-50] reads < 300 nM; that for `CNCCN1CCC(c2cc(C(=O)NCc3c(C)cc(C)[nH]c3=O)c3cnn(C4CCCC4)c3c2)CC1` [Compound D-51], < 300 nM; that for `Cc1cc(C)c(CNC(=O)c2cc(Br)cc3c2cnn3C2CCN(C(=O)C3CCNCC3)CC2)c(=O)[nH]1` [Compound D-52], < 300 nM.

Take `Cc1cc(C)c(CNC(=O)c2cc(CNCCN(C)C)cc3c2cnn3C2CCCC2)c(=O)[nH]1` [Compound D-53]: the IC50 lay within 300 to 1000 nM. On to `Cc1cc(C)c(CNC(=O)c2cc(C3=CCN(C(=O)CO)CC3)cc3c2cnn3C2CCCC2)c(=O)[nH]1` [Compound D-54], for which the IC50 lay within 300 to 1000 nM.

Take `CCC(=O)N1CCC(n2ncc3c(C(=O)NCc4c(C)cc(C)[nH]c4=O)cc(Br)cc32)CC1` [Compound D-55]: the half-inhibitory concentration (IC50) lay in the range of 300 to 1000 nM. In the case of `CC(=O)N1CCC(n2ncc3c(C(=O)NCc4c(C)cc(C)[nH]c4=O)cc(Br)cc32)CC1` [Compound D-59], the half-maximal inhibitory concentration (IC50) was 300 to 1000 nM. As for `CCc1cc(C(=O)NCc2c(C)cc(C)[nH]c2=O)c2cnn(C3CCCC3)c2c1` [Compound D-60], the figure is 300 to 1000 nM. The result for `Cc1cc(CN(C)CCCN(C)C)c(CNC(=O)c2cc(Br)cc3c2cnn3C2CCCC2)c(=O)[nH]1` [Compound D-62] reads 300 to 1000 nM. With `Cc1cc(CN2CCN(C)CC2)c(CNC(=O)c2cc(Br)cc3c2cnn3C2CCCC2)c(=O)[nH]1` [Compound D-63], the IC50 fell in the range of 300 to 1000 nM. As for `Cc1cc(C)c(CNC(=O)c2cc(CN3CCOCC3)cc3c2cnn3C2CCCC2)c(=O)[nH]1` [Compound D-64], the figure is 300 to 1000 nM; as for `Cc1cc(C)c(CNC(=O)c2cccc3c2cnn3C2CCCC2)c(=O)[nH]1` [Compound D-66], 300 to 1000 nM. In the case of `Cc1cc(C)c(CNC(=O)c2cc(CN(C)CCCN(C)C)cc3c2cnn3C2CCCC2)c(=O)[nH]1` [Compound D-67], the IC50 fell in the range of 300 to 1000 nM. The result for `Cc1cc(C)c(CNC(=O)c2cc(COCCO)cc3c2cnn3C2CCCC2)c(=O)[nH]1` [Compound D-68] reads 300 to 1000 nM. As for `Cc1cc(CN2CCNC(=O)C2)c(CNC(=O)c2cc(Br)cc3c2cnn3C2CCCC2)c(=O)[nH]1` [Compound D-69], the figure is 1000 to 3000 nM; as for `Cc1cc(C)c(CNC(=O)c2cc(Br)cc3c2cnn3C2CCN(C(C)C)CC2)c(=O)[nH]1` [Compound D-70], 1000 to 3000 nM. As for `Cc1cc(C)c(CNC(=O)c2cccc3c2cnn3C(C)C)c(=O)[nH]1` [Compound D-71], the figure is 1000 to 3000 nM; as for `COCCOCc1cc(C(=O)NCc2c(C)cc(C)[nH]c2=O)c2cnn(C3CCCC3)c2c1` [Compound D-72], 1000 to 3000 nM.

For `COCCNCc1cc(C(=O)NCc2c(C)cc(C)[nH]c2=O)c2cnn(C3CCCC3)c2c1` [Compound D-73], the IC50 was 1000 to 3000 nM. For the compound `Cc1cc(CN2CCN(C)CC2)c(CNC(=O)c2cccc3c2cnn3C2CCCC2)c(=O)[nH]1` [Compound D-74], the IC50 lay within 1000 to 3000 nM. The result for `Cc1cc(CN(C)CCN(C)C)c(CNC(=O)c2cccc3c2cnn3C2CCCC2)c(=O)[nH]1` [Compound D-75] reads 1000 to 3000 nM. `Cc1cc(CN(C)CCN)c(CNC(=O)c2cccc3c2cnn3C2CCCC2)c(=O)[nH]1` [Compound D-76]: the IC50 lay in the range of 1000 to 3000 nM.

For `Cc1cc(C)c(CNC(=O)c2cc(CNCCO)cc3c2cnn3C2CCCC2)c(=O)[nH]1` [Compound D-77], the IC50 was in the range of 1000 to 3000 nM. As to `Cc1cc(C)c(CNC(=O)c2cc(CN(C)CCN(C)C)cc3c2cnn3C2CCCC2)c(=O)[nH]1` [Compound D-78], the IC50 was 1000 to 3000 nM. Regarding `Cc1cc(CN2CCC(N3CCCCC3)CC2)c(CNC(=O)c2cc(Br)cc3c2cnn3C2CCCC2)c(=O)[nH]1` [Compound D-79], the IC50 lay within 1000 to 3000 nM. The result for `Cc1cc(CN(C)CCCN(C)C)c(CNC(=O)c2cccc3c2cnn3C2CCCC2)c(=O)[nH]1` [Compound D-80] reads 1000 to 3000 nM; that for `Cc1cc(CN(C)C)c(CNC(=O)c2cccc3c2cnn3C2CCCC2)c(=O)[nH]1` [Compound D-81], 3000 to 10000 nM; that for `Cc1cc(CN2CCCC2)c(CNC(=O)c2cccc3c2cnn3C2CCCC2)c(=O)[nH]1` [Compound D-82], 3000 to 10000 nM. As for `CNCc1cc(C)[nH]c(=O)c1CNC(=O)c1cccc2c1cnn2C1CCCC1` [Compound D-83], the figure is 3000 to 10000 nM; as for `Cc1cc(CN2CCOCC2)c(CNC(=O)c2cccc3c2cnn3C2CCCC2)c(=O)[nH]1` [Compound D-84], 3000 to 10000 nM.

In the case of `Cc1cc(COCCN(C)C)c(CNC(=O)c2cc(Br)cc3c2cnn3C2CCCC2)c(=O)[nH]1` [Compound D-85], the IC50 lay in the range of 3000 to 10000 nM.

For the compound `Cc1cc(COCCCN(C)C)c(CNC(=O)c2cccc3c2cnn3C2CCCC2)c(=O)[nH]1` [Compound D-86], the IC50 is 3000 to 10000 nM.

For the compound `Cc1cc(C)c(CNC(=O)c2cc(COCCCN(C)C)cc3c2cnn3C2CCCC2)c(=O)[nH]1` [Compound D-87], the IC50 lay within 3000 to 10000 nM. Regarding `Cc1cc(CO)c(CNC(=O)c2cccc3c2cnn3C2CCCC2)c(=O)[nH]1` [Compound D-88], the IC50 lay within 10000 to 50000 nM. As for `Cc1cc(CNCC2CCOCC2)c(CNC(=O)c2cccc3c2cnn3C2CCCC2)c(=O)[nH]1` [Compound D-89], the figure is 10000 to 50000 nM; as for `Cc1cc(COCCCN(C)C)c(CNC(=O)c2cc(Br)cc3c2cnn3C2CCCC2)c(=O)[nH]1` [Compound D-90], 10000 to 50000 nM; as for `Cc1cc(C)c(CNC(=O)c2cc(CN3CCC[C@@H]3C(N)=O)cc3c2cnn3C2CCCC2)c(=O)[nH]1` [Compound D-93], 300 to 1000 nM. The result for `Cc1cc(C)c(CNC(=O)c2cc(CN3CCNC(=O)C3)cc3c2cnn3C2CCCC2)c(=O)[nH]1` [Compound D-94] reads 300 to 1000 nM; that for `Cc1cc(C)c(CNC(=O)c2cc(C3=CCN(CCO)CC3)cc3c2cnn3C2CCCC2)c(=O)[nH]1` [Compound D-95], < 300 nM.
